Where two headings read alike, the source gives them in different places.
Tests used:
[1] = test system: SNU-638; experiment: Cell viability / antiproliferative assay (WST-8), SNU-638; format: cell-based, human; conditions: read-out: SNU-638 IC50
Method: (§2) c-MET overexpressing human gastric cancer cell lines [MKN45] and [SNU638] were cultured in RPMI medium with 10% fetal bovine serum, penicillin (100U/ml), and streptomycin (100mg/ml), and c-MET exon 14 skipping mutant human gastric cancer cell lines [Hs746T] were cultured in DMEM media. The c-MET overexpressing human lung cancer cell line EBC-1 was cultured in MEM media with the addition of 10% fetal bovine serum, penicillin (100U/ml), and streptomycin (100mg/ml). […] The compound synthesized in accordance with the present invention was prepared with a raw material solution of 10 mM dissolved in DMSO (dimethyl sulfoxide), and was sequentially diluted and processed.
(§3) In order to observe the inhibitory activity on cell growth, cells were dispensed in a 96-well plate at a concentration of 5,000 cells/well, and then treated with the compound prepared at various concentrations for 72 hours. The viability of the cells was calculated using GraphicPad Prism 8.0 software by adding 10 ml per well of WST-8 (water soluble tetrazolium salt) sample, which reacts with dehydrogenase present in the electron transport system of mitochondria to produce formazon, incubated for 2 hours, and measured absorbance at 450 nm.

[2] = molecular target: T1, c-MET (Homo sapiens, UniProt P08581); experiment: c-MET protein degradation (Simple Western), SNU-638; format: cell-based; parameters: assess the resolution of the compound of the present invention for c-MET expressed in cells; endogenous in cells; host or cells: SNU638 (human gastric cancer); conditions: c-MET overexpressing gastric cancer cell line SNU-638, treated 24 hours
T1 sequence (P08581 25-1390): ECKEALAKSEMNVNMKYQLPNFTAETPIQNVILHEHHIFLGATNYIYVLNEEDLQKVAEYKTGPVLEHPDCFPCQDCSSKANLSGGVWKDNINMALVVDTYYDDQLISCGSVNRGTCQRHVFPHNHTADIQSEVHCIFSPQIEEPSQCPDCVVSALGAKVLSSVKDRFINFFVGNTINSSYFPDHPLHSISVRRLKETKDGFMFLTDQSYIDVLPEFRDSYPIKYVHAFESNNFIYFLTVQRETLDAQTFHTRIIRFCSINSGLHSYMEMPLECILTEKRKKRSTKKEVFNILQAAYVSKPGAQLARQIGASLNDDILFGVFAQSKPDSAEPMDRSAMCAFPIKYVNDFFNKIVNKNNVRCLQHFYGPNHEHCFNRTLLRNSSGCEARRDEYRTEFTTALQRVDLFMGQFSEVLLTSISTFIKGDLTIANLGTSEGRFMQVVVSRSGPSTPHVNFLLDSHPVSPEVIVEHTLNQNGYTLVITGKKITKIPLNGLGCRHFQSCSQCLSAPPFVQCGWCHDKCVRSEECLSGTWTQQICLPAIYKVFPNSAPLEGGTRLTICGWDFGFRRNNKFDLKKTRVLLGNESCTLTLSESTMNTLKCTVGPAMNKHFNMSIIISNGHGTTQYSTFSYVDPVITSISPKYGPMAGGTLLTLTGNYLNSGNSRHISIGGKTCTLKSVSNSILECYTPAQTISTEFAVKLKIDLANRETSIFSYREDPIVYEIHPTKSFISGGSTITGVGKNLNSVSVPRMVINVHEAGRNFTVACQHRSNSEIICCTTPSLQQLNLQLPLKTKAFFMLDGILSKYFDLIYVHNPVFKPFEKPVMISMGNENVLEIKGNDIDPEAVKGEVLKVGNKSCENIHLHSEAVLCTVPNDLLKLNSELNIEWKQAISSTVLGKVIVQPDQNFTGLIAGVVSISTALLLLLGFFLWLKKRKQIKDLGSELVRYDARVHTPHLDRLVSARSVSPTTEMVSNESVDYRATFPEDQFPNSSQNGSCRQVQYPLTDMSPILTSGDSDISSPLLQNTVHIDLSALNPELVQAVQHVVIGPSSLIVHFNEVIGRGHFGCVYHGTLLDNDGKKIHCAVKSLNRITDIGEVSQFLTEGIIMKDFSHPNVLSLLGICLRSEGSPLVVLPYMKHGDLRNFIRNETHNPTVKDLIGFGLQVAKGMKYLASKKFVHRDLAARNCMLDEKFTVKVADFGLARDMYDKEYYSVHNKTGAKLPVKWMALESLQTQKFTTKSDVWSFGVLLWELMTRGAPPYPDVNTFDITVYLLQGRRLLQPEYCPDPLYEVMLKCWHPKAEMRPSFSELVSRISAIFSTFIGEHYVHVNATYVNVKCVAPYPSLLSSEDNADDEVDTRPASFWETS
Method: (§1) In order to assess the resolution of the compound of the present invention for c-MET expressed in cells, cells were dispensed in a 12-well plate at a concentration of 2 × 10^5 cells/well, and then gastric cancer cell lines were treated with samples for 24 hours and lung cancer cell lines were treated for 48 hours. Cell lysates were collected using a scraper on ice, centrifuged at 4°C15,000 rpm for 30 min to obtain a protein-containing supernatant. Protein expression was then measured using the Simple Western Automated Western Blot System Abby instrument using 3 µg of protein for each sample. SDS and heat-induced denaturation proteins were separated by molecular weight, attached to capillary, reacted with anti-c-MET or anti-GAPDH antibodies, which are primary antibodies, and then reacted with HRP-conjugated secondary antibodies, and analyzed the protein expression signal with compass software. Protein expression was normalized based on the expression value of GAPDH, and protein development in each sample was measured as a percentage (%) based on 100% of samples treated with 0.1% DMSO carriers, and DC50 (concentration of a compound where 50% protein inhibition is achieved) was calculated from the change in protein expression amount due to compound treatment.

[3] = test system: EBC-1; experiment: Cell viability / antiproliferative assay (WST-8), EBC-1; format: cell-based, human; conditions: read-out: EBC-1 IC50
Method: as §2, §3

[4] = molecular target: T1, c-MET; experiment: c-MET protein degradation (Simple Western), EBC-1; format: cell-based; parameters: assess the resolution of the compound of the present invention for c-MET expressed in cells; endogenous in cells; host or cells: EBC-1 (human lung cancer); conditions: c-MET overexpressing lung cancer cell line EBC-1, treated 48 hours; Table 2
Method: as §1

[5] = test system: MKN-45; experiment: Cell viability / antiproliferative assay (WST-8), MKN-45; conditions: for IC50: Homo sapiens, MKN-45, 72 h, read-out: MKN-45 IC50;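 on all read-outs here: MKN-45 is a human gastric cancer line overexpressing c-MET, growth inhibition read as WST-8 formazan absorbance at 450 nm after 2 h dye incubation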
Method: as §2, §3

[6] = molecular target: T1, c-MET; experiment: c-MET protein degradation (Simple Western), MKN-45; format: cell-based; parameters: assess the resolution of the compound of the present invention for c-MET expressed in cells; endogenous in cells; host or cells: MKN45 (human gastric cancer); conditions: c-MET overexpressing gastric cancer cell line MKN-45, treated 24 hours
How it was run: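 Cells treated 24 h (gastric lines) or 48 h (lung lines); 3 µg lysate protein analysed by capillary Simple Western with anti-c-MET, normalized to GAPDH and expressed as % of 0.1% DMSO; DC50 from expression change.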

`Cc1nn(C2CCC(=O)NC2=O)c(=O)c2ccc(N3CCN(C4CN(CCN5CCC(COc6cnc(-c7cccc(Cn8nc(-c9cccc(C#N)c9)ccc8=O)c7)nc6)CC5)C4)CC3)cc12` (stereo not drawn) [ICT-0001325] showed an IC50 ([1]; Homo sapiens, SNU-638, 72 h) of less than 100 nM and a DC50 ([2]; Table 2) greater than 1000 nM.

For `N#Cc1cccc(-c2ccc(=O)n(Cc3cccc(-c4ncc(-c5cccc(CN6CCN(c7ccc(C8CCC(=O)NC8=O)cn7)CC6)c5)cn4)c3)n2)c1` (stereo not drawn) [ICT-0001449], the IC50 ([1]; Homo sapiens, SNU-638, 72 h) was less than 100 nM, the IC50 ([3]; Homo sapiens, EBC-1, 72 h) was less than 100 nM and the DC50 [4] was less than 100 nM. The DC50 ([2]; Table 2) was greater than 1000 nM.

`N#Cc1cccc(-c2ccc(=O)n(Cc3cccc(-c4ncc(OCC5CCN(c6ccc(NC7CCC(=O)NC7=O)cc6F)CC5)cn4)c3)n2)c1` (stereo not drawn) [ICT-0001383] was tested, and the IC50 ([1]; Homo sapiens, SNU-638, 72 h) was less than 100 nM, the IC50 ([3]; Homo sapiens, EBC-1, 72 h) was less than 100 nM and the DC50 [4] was less than 100 nM. The DC50 ([2]; Table 2) was less than 100 nM.

With `Cn1cc(-c2cnc3c(nnn3C[C@@H]3CN(c4ncc(-c5ccc(CN6CCN(c7ccc(NC8CCC(=O)NC8=O)cc7F)CC6)cc5)cn4)CCO3)n2)cn1` (stereo partly drawn) [ICT-0001403, 3-((3-fluoro-4-(4-(4-(2-((S)-2-((5-(1-methyl-1H-pyrazole-4-yl)-1H-[1,2,3]triazolo[4,5-b]pyrazine-1-yl)methyl)morpholino)pyrimidine-5-yl)benzyl)piperazine-1-yl)phenyl)amino)piperidine-2,6-dione] the IC50 ([1]; Homo sapiens, SNU-638 cells, 72 hours, WST-8, Table 1) was less than 100 nM and the IC50 ([3]; Homo sapiens, EBC-1 cells, 72 hours, WST-8, Table 1) was less than 100 nM.

Compound `Cc1nn(C2CCC(=O)NC2=O)c(=O)c2ccc(N3CCN(C(=O)C4CCN(CC(=O)N5CCC(COc6cnc(-c7cccc(Cn8nc(-c9cccc(C#N)c9)ccc8=O)c7)nc6)CC5)CC4)CC3)cc12` (stereo not drawn) [ICT-0001218] has an IC50 ([1]; Homo sapiens, SNU-638, 72 h) of less than 100 nM, an IC50 [5] of less than 100 nM and a DC50 ([6]; Table 2) of less than 100 nM. For the same compound, the DC50 ([2]; Table 2) was less than 100 nM.

`Cc1nn(C2CCC(=O)NC2=O)c(=O)c2ccc(N3CCN(C(=O)C4CN(CC(=O)N5CCC(COc6cnc(-c7cccc(Cn8nc(-c9cccc(C#N)c9)ccc8=O)c7)nc6)CC5)C4)CC3)cc12` (stereo not drawn) [ICT-0001257] gave an IC50 ([3]; Homo sapiens, EBC-1, 72 h) of less than 100 nM, an IC50 [5] of less than 100 nM and a DC50 ([6]; Table 2) of less than 100 nM.

Work on `N#Cc1cccc(-c2ccc(=O)n(Cc3cccc(-c4ncc(OCC5CCN(CC(=O)N6CC(N7CCN(c8ccc9c(=O)n(C%10CCC(=O)NC%10=O)ncc9c8)CC7)C6)CC5)cn4)c3)n2)c1` (stereo not drawn) [ICT-0001232] yielded an IC50 ([3]; Homo sapiens, EBC-1, 72 h) of less than 100 nM, an IC50 [5] of less than 100 nM and a DC50 [4] of less than 100 nM. It also gave a DC50 ([6]; Table 2) of less than 100 nM and a DC50 ([2]; Table 2) of less than 100 nM.

Work on `Cc1nn(C2CCC(=O)NC2=O)c(=O)c2cc(N3CCN(CC4CCN(CCN5CCC(COc6cnc(-c7cccc(Cn8nc(-c9cccc(C#N)c9)ccc8=O)c7)nc6)CC5)CC4)CC3)c(F)cc12` (stereo not drawn) [ICT-0001326] yielded an IC50 ([1]; Homo sapiens, SNU-638, 72 h) of 100 to 1000 nM and a DC50 ([2]; Table 2) greater than 1000 nM.

For `N#Cc1cccc(-c2ccc(=O)n(Cc3cccc(-c4ncc(OCC5CCN(C(=O)CN6CCN(c7ccc8c(=O)n(C9CCC(=O)NC9=O)ncc8c7)CC6)CC5)cn4)c3)n2)c1` (stereo not drawn) [ICT-0000979, 3-(1-{[3-(5-{[1-(2-{4-[2-(2,6-dioxopiperidine-3-yl)-1-oxo-1,2-dihydrophthalazine-6-yl]piperazine-1-day}acetyl)piperidine-4-yl]methoxy}pyrimidine-2-yl)phenyl]methyl}-6-oxo-1,6-dihydropyridazine-3-yl)benzonitrile], the IC50 ([1]; Homo sapiens, SNU-638, 72 h) was 100 to 1000 nM, the “MKN-45 IC50” value ([5]; MKN-45 cells, 72 hours, WST-8, Table 2) was “A” and the DC50 ([6]; Table 2) was less than 100 nM. It also gave a DC50 ([2]; Table 2) of 100 to 1000 nM.

`N#Cc1cccc(-c2ccc(=O)n(Cc3cccc(-c4ncc(OCC5CCN(CCN6CCN(c7ccc8c(=O)n(C9CCC(=O)NC9=O)ncc8c7)CC6)CC5)cn4)c3)n2)c1` (stereo not drawn) [ICT-0001276, 3-(1-{[3-(5-{[1-(2-{4-[2-(2,6-dioxopiperidin-3-yl)-1-oxo-1,2-dihydropetalazine-6-yl]piperazine-1-il}ethyl)piperidine-4-il]methoxy}pyrimidine-2-yl)phenyl]methyl}-6-oxo-1,6-dihydropyridazine-3-yl)benzonitrile] gave an IC50 ([1]; Homo sapiens, SNU-638, 72 h) of less than 100 nM, an IC50 [5] of less than 100 nM and a DC50 [4] greater than 1000 nM. The DC50 ([6]; Table 2) was less than 100 nM.

For `Cc1nn(C2CCC(=O)NC2=O)c(=O)c2cc(N3CCN(c4ccc(NCC(=O)N5CCC(COc6cnc(-c7cccc(Cn8nc(-c9cccc(C#N)c9)ccc8=O)c7)nc6)CC5)cc4)CC3)ccc12` (stereo not drawn) [ICT-0001262, 3-(1-(3-(5-((1-((4-(4-(3-(2,6-dioxopiperidin-3-yl)-1-methyl-4-oxo-3,4-dihydropthalazine-6-yl)piperazine-1-yl)phenyl)glycy)piperidine-4-il)methoxy)pyrimidine-2-yl)benzyl)6-oxo-1,6-dihydropyridazine-3-yl)benzonitrile], the IC50 ([3]; Homo sapiens, EBC-1, 72 h) was less than 100 nM, the IC50 [5] was less than 100 nM and the DC50 ([6]; Table 2) was less than 100 nM.

For `Cn1cc(-c2cnc3c(nnn3C[C@@H]3CN(c4ncc(-c5ccc(CN6CCN(C(=O)CCCCCNc7ccc8c(=O)n(C9CCC(=O)NC9=O)ncc8c7)CC6)cc5)cn4)CCO3)n2)cn1` (stereo partly drawn) [ICT-0000923, 3-{6-[(6-{4-[(4-{2-[(2S)-2-{[5-(1-methyl-1H-pyrazole-4-yl)-1H-[1,2,3]triazolo[4,5-b]pyrazine-1-yl]methyl}morpholine-4-day]pyrimidine-5-yl}phenyl)methyl]piperazine-1-yl}-6-oxohexyl)amino]-1-oxo-1,2-dihydrophthalazine-2-yl}piperidine-2,6-dione], the IC50 ([1]; Homo sapiens, SNU-638, 72 h) was less than 100 nM, the IC50 [5] was less than 100 nM and the DC50 ([6]; Table 1) was less than 100 nM.

Work on `Cn1cc(-c2cnc3c(nnn3C[C@@H]3CN(c4ncc(-c5ccc(CN6CCN(C(=O)CCCCNc7ccc8c(=O)n(C9CCC(=O)NC9=O)ncc8c7)CC6)cc5)cn4)CCO3)n2)cn1` (stereo partly drawn) [ICT-0000924, 3-(6-((5-(4-(4-(2-((S)-2-((5-(1-methyl-1H-pyrazole-4-yl)-1H-[1,2,3]triazolo[4,5-b]pyrazine-1-yl)methyl)morpholino)pyrimidine-5-yl)benzyl)piperazine-1-yl)5-oxopentyl)amino)1-oxopthalazine-2(1H)-yl)piperidine-2,6-dione] yielded an IC50 ([1]; Homo sapiens, SNU-638, 72 h) of less than 100 nM, an IC50 [5] of less than 100 nM and a DC50 ([6]; Table 1) of less than 100 nM.

In the case of `Cn1cc(-c2cnc3c(nnn3C[C@@H]3CN(c4ncc(-c5ccc(CN6CCN(CC(=O)N7CCN(c8ccc(NC9CCC(=O)NC9=O)cc8F)CC7)CC6)cc5)cn4)CCO3)n2)cn1` (stereo partly drawn) [ICT-0001379], the IC50 ([1]; SNU-638 cells, 72 hours, WST-8, Table 1) is reported as less than 100 nM, the IC50 ([3]; EBC-1 cells, 72 hours, WST-8, Table 1) is reported as less than 100 nM and the DC50 ([2]; Table 1) is reported as less than 100 nM.

Work on `N#Cc1cccc(-c2ccc(=O)n(Cc3cccc(-c4ncc(-c5cccc(CN6CCC(CN7CCN(c8ccc(NC9CCC(=O)NC9=O)cc8F)CC7)CC6)c5)cn4)c3)n2)c1` (stereo not drawn) [ICT-0001450] yielded an IC50 ([1]; Homo sapiens, SNU-638, 72 h) of less than 100 nM, an IC50 ([3]; Homo sapiens, EBC-1, 72 h) of less than 100 nM and a DC50 [4] of less than 100 nM.

`Cc1nn(C2CCC(=O)NC2=O)c(=O)c2cc(N3CCN(CCN4CCC(COc5cnc(-c6cccc(Cn7nc(-c8cccc(C#N)c8)ccc7=O)c6)nc5)CC4)CC3)ccc12` (stereo not drawn) [ICT-0001278, 3-(1-{[3-(5-{[1-(2-{4-[3-(2,6-dioxopiperidin-3-yl)-1-methyl-4-oxo-3,4-dihydropthalazine-6-yl]piperazine-1-yl}ethyl)piperidine-4-day]methoxy}pyrimidine-2-yl)phenyl]methyl}6-oxo-1,6-dihydropyridazine-3-yl)benzonitrile] was tested, and the IC50 [5] was less than 100 nM and the DC50 [4] was greater than 1000 nM.

Compound `Cc1nn(C2CCC(=O)NC2=O)c(=O)c2c(NCC(=O)N3CCC(CN4CCC(COc5cnc(-c6cccc(Cn7nc(-c8cccc(C#N)c8)ccc7=O)c6)nc5)CC4)CC3)cccc12` (stereo not drawn) [ICT-0000980] has an IC50 ([1]; Homo sapiens, SNU-638, 72 h) of 100 to 1000 nM, an IC50 [5] of less than 100 nM and a DC50 ([6]; Table 2) of less than 100 nM. The DC50 ([2]; Table 2) was greater than 1000 nM.

Work on `N#Cc1cccc(-c2ccc(=O)n(Cc3ccc(-c4ncc(OCC5CCN(CCCC#Cc6cccc7c(=O)n(C8CCC(=O)NC8=O)ncc67)CC5)cn4)cc3)n2)c1` (stereo not drawn) [ICT-0001303] yielded an IC50 ([1]; SNU-638 cells, 72 hours, WST-8, Table 2) of less than 100 nM and a DC50 ([2]; Table 2) of 100 to 1000 nM.

From patent EP4624466A1, “DEGRADER FOR DECOMPOSING CMET PROTEIN, AND PHARMACEUTICAL COMPOSITION COMPRISING SAME” (Innocure Therapeutics, Inc., priority 2022, dated 2024)
